From article PMC5695136 (Theranostics, 2017)

Assays:
[1] = First in-human PET/CT imaging; type: in vivo; details: mean SUV averaged over right and left side and all patients (three patients)
[2] = test system: PSMA+ LNCaP cells; details: equal experimental set up; cited from earlier work

**Q.** For `O=C([O-])CN(CCN(CC(=O)[O-])Cc1cc(CCC(=O)NCCCCCC(=O)NCCCC[C@H](NC(=O)N[C@@H](CCC(=O)O)C(=O)O)C(=O)O)ccc1[O-])Cc1cc(CCC(=O)O)ccc1[O-].[68Ga+3].[OH3+]` [[^68Ga]Ga-PSMA-11], which SUV kidneys [1] is on record?
**A.** 30.5

**Q.** What about the “Internalization±SD” value [2] of the same compound?
**A.** 9.47±2.56 %IA/10^6 cells
